In ChEMBL document CHEMBL5291721, “A preclinical secondary pharmacology resource illuminates target-adverse drug reaction associations of marketed drugs” (Nat Commun, 2023) one finds AC50 data, which are given here for 17 compounds.

For test [1], the target named is Histamine H3 receptor (Homo sapiens, UniProt Q9Y5N1).
Test [2] addresses T1, Neuropeptide Y receptor type 1 (Homo sapiens, UniProt P25929).
T1 sequence (P25929 whole entry): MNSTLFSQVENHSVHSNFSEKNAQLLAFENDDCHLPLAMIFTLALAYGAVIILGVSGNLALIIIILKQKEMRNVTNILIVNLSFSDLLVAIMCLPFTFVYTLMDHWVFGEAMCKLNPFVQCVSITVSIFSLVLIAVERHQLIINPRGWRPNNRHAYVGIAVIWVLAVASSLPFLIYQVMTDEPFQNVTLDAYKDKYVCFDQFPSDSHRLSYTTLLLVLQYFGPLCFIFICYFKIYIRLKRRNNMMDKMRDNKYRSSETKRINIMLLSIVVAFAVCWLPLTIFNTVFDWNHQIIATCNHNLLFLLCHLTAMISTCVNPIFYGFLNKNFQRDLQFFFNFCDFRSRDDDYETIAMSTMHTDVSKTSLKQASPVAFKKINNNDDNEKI

The target in test [3] is Delta-type opioid receptor (Homo sapiens, UniProt P41143).
Chain of Delta-type opioid receptor (P41143 whole entry): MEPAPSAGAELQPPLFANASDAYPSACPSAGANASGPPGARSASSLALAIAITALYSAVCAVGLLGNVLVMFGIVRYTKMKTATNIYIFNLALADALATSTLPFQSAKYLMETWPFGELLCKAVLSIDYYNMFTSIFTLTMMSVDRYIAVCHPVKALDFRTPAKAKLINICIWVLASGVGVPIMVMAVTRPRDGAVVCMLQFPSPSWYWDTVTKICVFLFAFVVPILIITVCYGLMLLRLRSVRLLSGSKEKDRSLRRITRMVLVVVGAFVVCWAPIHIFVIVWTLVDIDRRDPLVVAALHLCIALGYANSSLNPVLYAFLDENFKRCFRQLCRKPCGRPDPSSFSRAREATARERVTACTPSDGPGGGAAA
In test [4] the target is Kappa-type opioid receptor (Homo sapiens, UniProt P41145).
Chain of Kappa-type opioid receptor (P41145 whole entry): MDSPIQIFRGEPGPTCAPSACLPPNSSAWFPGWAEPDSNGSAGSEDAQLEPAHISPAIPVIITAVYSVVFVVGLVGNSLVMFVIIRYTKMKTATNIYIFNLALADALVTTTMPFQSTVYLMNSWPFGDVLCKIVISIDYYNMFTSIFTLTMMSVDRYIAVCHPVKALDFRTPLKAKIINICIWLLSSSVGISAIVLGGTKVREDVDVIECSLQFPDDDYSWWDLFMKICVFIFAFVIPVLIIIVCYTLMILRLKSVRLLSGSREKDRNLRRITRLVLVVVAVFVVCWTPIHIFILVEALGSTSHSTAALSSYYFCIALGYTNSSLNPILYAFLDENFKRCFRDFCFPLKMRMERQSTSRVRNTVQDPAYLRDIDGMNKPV
Test [5] addresses cGMP-inhibited 3',5'-cyclic phosphodiesterase 3A (Homo sapiens, UniProt Q14432). The format is functional.
The target in test [6] is Bile salt export pump (Homo sapiens, UniProt O95342). The class given is functional.
Chain of Bile salt export pump (O95342 whole entry): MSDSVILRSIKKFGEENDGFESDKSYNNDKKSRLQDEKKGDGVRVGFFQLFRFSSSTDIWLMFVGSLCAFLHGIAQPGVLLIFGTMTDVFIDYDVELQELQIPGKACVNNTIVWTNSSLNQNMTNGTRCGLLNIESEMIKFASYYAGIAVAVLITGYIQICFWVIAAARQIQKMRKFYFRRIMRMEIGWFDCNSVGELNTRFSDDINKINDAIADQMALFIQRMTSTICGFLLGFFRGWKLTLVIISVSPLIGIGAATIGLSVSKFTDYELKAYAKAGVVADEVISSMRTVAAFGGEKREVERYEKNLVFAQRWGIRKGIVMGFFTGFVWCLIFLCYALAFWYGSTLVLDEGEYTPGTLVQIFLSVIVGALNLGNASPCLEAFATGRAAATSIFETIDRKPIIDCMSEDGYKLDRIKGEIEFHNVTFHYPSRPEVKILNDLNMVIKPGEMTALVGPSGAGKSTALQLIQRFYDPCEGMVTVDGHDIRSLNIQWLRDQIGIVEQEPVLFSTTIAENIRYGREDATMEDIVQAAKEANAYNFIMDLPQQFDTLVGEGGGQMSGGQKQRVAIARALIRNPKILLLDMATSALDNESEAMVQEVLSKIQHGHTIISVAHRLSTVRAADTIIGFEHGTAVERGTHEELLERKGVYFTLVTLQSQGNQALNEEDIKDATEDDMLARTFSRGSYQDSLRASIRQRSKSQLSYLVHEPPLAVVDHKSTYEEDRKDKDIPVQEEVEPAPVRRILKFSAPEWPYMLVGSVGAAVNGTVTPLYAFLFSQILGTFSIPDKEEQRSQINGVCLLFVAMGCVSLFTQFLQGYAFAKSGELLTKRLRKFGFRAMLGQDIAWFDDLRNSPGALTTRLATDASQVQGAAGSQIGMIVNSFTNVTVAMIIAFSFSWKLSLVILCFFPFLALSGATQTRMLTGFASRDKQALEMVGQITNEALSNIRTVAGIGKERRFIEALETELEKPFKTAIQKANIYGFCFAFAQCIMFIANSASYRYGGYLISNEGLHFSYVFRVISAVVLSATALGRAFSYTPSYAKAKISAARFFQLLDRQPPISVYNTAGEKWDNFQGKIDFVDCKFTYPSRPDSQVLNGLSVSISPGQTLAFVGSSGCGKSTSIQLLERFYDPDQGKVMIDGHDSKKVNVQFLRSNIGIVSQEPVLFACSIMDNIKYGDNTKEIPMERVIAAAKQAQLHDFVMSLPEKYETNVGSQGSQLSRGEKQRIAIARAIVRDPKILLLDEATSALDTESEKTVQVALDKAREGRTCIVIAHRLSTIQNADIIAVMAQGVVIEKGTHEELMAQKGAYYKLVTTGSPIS
The target of test [7] is T2, 5-hydroxytryptamine receptor 1A (Homo sapiens, UniProt P08908).
T2 sequence (P08908 whole entry): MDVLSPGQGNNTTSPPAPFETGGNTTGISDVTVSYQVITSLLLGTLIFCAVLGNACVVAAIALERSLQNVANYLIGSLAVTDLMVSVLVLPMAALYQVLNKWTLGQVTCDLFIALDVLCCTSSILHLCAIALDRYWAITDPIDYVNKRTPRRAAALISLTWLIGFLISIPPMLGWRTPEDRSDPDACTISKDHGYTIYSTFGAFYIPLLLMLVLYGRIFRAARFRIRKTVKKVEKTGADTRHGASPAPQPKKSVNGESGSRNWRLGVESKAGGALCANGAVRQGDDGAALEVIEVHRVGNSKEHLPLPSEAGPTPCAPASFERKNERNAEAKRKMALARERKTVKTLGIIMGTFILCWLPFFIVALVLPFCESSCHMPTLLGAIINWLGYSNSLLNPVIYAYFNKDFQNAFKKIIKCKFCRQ
The class given is functional, cell-based.

In test [8] the target is Sodium-dependent noradrenaline transporter (Homo sapiens, UniProt P23975).
Chain of Sodium-dependent noradrenaline transporter (P23975 whole entry): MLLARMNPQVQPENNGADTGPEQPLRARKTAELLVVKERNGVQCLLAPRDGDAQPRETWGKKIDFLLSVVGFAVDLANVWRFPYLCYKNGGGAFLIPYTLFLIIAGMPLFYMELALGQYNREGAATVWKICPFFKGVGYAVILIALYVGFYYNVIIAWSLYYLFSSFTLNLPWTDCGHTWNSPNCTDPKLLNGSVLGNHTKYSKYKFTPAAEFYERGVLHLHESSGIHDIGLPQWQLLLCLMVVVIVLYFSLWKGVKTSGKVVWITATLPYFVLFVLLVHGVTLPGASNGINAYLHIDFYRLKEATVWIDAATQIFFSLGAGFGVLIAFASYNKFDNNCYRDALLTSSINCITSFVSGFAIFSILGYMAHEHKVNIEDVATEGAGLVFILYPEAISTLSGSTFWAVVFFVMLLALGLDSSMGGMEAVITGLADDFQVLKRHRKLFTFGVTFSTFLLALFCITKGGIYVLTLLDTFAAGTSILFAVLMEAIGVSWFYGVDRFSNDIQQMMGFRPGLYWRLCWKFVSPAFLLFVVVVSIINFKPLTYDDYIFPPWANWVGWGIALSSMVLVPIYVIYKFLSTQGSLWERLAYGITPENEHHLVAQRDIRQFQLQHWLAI
Test [9] has as its target T3, Progesterone receptor (Homo sapiens, UniProt P06401).
T3 sequence (P06401 whole entry): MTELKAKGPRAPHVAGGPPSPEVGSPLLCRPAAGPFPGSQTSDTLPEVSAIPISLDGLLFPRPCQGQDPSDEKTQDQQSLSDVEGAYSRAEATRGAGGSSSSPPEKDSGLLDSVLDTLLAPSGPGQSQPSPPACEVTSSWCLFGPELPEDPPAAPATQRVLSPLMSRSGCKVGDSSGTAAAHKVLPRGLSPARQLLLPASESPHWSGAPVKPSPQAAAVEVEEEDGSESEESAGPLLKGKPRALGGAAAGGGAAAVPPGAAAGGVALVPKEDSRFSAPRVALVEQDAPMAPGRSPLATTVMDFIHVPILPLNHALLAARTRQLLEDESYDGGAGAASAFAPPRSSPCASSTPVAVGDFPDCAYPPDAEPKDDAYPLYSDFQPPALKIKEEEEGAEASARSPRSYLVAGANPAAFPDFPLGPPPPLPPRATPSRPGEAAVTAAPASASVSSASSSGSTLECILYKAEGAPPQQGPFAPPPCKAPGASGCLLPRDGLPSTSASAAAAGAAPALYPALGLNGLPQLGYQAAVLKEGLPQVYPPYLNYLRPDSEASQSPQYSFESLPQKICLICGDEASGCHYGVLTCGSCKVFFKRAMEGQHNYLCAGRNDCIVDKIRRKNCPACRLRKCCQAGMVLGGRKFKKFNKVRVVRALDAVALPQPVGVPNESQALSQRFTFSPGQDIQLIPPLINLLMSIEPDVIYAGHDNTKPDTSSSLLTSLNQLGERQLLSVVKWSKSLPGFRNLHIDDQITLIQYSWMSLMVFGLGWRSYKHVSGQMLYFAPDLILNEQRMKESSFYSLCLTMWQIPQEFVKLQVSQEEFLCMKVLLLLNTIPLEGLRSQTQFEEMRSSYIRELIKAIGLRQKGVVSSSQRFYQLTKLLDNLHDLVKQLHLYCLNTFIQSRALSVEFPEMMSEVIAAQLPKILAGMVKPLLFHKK
The format is functional.

Test [10] has as its target T4, Alpha-1A adrenergic receptor (Homo sapiens, UniProt P35348).
T4 sequence (P35348 whole entry): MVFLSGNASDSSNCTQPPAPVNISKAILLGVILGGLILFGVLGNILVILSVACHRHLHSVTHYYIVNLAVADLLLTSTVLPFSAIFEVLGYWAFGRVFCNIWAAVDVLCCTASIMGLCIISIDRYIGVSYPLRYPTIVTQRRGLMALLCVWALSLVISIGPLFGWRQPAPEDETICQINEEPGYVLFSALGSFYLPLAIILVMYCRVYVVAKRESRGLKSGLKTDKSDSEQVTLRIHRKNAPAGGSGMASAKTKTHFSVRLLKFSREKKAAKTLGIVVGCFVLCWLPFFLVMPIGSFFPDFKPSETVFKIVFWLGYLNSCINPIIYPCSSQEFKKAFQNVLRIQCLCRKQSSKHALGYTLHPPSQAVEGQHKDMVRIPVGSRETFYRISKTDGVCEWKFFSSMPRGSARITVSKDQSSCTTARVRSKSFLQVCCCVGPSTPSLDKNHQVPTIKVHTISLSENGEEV
The format is functional, cell-based.

The target in test [11] is Sodium-dependent serotonin transporter (Homo sapiens, UniProt P31645).
Chain of Sodium-dependent serotonin transporter (P31645 whole entry): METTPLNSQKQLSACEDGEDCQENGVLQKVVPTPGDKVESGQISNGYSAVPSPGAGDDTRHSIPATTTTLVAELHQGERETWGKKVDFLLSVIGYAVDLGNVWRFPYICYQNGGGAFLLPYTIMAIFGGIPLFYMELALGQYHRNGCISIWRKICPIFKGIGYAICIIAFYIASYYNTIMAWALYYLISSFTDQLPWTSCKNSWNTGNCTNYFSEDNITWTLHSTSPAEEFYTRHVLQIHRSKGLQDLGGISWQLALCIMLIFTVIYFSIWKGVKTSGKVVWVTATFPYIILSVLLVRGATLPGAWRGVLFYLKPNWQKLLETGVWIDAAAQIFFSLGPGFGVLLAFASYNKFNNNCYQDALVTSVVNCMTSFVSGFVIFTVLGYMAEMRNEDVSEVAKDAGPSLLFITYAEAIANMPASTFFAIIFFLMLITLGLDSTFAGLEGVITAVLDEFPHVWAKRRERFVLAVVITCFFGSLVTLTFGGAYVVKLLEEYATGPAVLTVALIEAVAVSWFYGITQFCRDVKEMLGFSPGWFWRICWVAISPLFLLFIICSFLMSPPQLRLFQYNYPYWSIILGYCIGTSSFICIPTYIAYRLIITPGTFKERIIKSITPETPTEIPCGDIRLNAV

Molecules are shown by their SMILES.
Note: assay procedure not described here.

Chain of cGMP-inhibited 3',5'-cyclic phosphodiesterase 3A (Q14432 whole entry): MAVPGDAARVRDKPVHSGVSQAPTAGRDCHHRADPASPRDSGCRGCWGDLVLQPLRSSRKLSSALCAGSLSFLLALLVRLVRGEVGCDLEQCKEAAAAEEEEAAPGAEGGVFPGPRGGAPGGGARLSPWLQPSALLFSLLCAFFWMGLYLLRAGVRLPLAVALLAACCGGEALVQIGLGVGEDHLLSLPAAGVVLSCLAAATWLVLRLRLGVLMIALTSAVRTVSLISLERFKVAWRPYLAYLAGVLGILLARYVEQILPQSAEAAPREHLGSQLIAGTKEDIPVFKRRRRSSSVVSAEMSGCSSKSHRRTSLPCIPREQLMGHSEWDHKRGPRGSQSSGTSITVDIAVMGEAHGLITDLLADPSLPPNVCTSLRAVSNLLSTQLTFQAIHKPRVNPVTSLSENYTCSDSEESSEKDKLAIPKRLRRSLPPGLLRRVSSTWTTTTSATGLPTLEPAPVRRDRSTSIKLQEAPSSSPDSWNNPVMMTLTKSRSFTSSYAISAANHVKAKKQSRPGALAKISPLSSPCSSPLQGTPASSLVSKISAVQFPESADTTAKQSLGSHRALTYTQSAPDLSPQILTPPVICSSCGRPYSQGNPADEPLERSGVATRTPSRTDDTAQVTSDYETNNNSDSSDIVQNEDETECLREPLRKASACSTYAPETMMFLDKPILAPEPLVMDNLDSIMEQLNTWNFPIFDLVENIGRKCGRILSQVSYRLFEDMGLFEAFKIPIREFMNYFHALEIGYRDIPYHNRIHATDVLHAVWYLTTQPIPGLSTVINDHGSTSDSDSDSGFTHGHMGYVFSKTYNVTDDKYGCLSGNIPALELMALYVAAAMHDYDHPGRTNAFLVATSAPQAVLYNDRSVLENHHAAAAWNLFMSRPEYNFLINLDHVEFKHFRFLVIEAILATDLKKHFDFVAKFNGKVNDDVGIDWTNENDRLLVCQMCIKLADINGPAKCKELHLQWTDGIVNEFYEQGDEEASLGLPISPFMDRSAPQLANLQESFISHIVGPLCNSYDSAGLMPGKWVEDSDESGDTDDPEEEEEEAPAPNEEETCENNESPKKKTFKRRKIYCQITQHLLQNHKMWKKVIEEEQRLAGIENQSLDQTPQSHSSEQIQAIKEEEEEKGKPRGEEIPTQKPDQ
Chain of Histamine H3 receptor (Q9Y5N1 whole entry): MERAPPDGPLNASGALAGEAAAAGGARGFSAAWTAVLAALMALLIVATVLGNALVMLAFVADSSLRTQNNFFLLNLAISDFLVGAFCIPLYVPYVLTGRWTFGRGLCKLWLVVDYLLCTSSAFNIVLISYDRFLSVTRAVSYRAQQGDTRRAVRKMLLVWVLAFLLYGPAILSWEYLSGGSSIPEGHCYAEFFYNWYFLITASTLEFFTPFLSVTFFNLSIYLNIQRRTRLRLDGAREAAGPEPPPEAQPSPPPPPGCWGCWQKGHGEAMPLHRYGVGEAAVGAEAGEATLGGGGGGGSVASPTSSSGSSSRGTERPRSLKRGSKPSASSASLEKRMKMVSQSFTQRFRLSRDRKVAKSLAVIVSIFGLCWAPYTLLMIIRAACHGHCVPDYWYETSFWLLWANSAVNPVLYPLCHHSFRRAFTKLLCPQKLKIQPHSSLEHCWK

Take `CC[C@H](C)C(=O)O[C@H]1C[C@@H](C)C=C2C=C[C@H](C)[C@H](CC[C@@H]3C[C@@H](O)CC(=O)O3)[C@H]21` [LOVASTATIN]: the AC50 was more than 10 µM in test [1]; more than 30 µM in [2]; more than 30 µM in [3]; more than 10 µM in test [4]; more than 30 µM in test [5]; 27 µM in test [6]. Also, the AC50 in [7] and in [8] was more than 10 µM in each case.

Take `CC(C)[C@H](N)C(=O)OCCOCn1cnc2c(=O)[nH]c(N)nc21` [VALACYCLOVIR]: the concentration at half-maximal activity (AC50) is more than 10 µM in test [1]; more than 30 µM in test [2]; more than 30 µM in test [3]; more than 10 µM in test [4]; more than 30 µM in test [5]; more than 300 µM in test [6]. Moreover, the concentration at half-maximal activity (AC50) in test [7] and in test [8] was more than 10 µM in each case.

For the compound `C[N+](C)(C)CCOC(=O)CCC(=O)OCC[N+](C)(C)C` [SUXAMETHONIUM], the half-maximal activity concentration (AC50) in test [6] is more than 300 µM.

As to `Clc1ccc(Cn2c(CN3CCCC3)nc3ccccc32)cc1` [CLEMIZOLE], the AC50 in test [1] is more than 30 µM; in [3] it was more than 30 µM; in test [5] it was more than 30 µM; in test [6] it was 29 µM; in [7] it was more than 30 µM; in test [8], more than 30 µM.

With `CC(C)Cc1ccc([C@H](C)C(=O)O)cc1` [DEXIBUPROFEN], the concentration at half-maximal activity (AC50) in test [1] was more than 30 µM; in [9], more than 30 µM; in test [3], more than 30 µM; in test [5], more than 30 µM; in [6], 188 µM; in test [7], more than 30 µM. In test [8], this compound came in with an AC50 of more than 30 µM.

For the compound `CCCNC(=O)NS(=O)(=O)c1ccc(Cl)cc1` [CHLORPROPAMIDE], the concentration at half-maximal activity (AC50) was more than 10 µM in test [1]; more than 30 µM in test [2]; more than 30 µM in test [3]; more than 10 µM in test [4]; more than 30 µM in test [5]; more than 300 µM in test [6]. Further, the figures for the half-maximal activity concentration (AC50) in [7] and in [8] were more than 10 µM and more than 30 µM, respectively.

Take `CC(CN1c2ccccc2Sc2ccccc21)N(C)C` (stereo unspecified) [PROMETHAZINE]: the half-maximal activity concentration (AC50) is more than 10 µM in test [1]; more than 30 µM in [2]; more than 30 µM in [3]; more than 30 µM in [5]; more than 300 µM in [6]; more than 10 µM in [7]. For the same compound, in test [8], the concentration at half-maximal activity (AC50) came to 0.81 µM.

In the case of `CNC[C@H](O)c1ccc(O)c(O)c1` [EPINEPHRINE], the half-maximal activity concentration (AC50) was more than 30 µM in [1]; more than 30 µM in [9]; more than 30 µM in [3]; more than 30 µM in test [5]; more than 300 µM in test [6]; more than 30 µM in test [8].

As for `S=P(N1CC1)(N1CC1)N1CC1` [THIOTEPA], the concentration at half-maximal activity (AC50) was more than 30 µM in [1]; more than 30 µM in test [9]; more than 30 µM in test [3]; more than 30 µM in test [5]; 83 µM in test [6]; more than 10 µM in test [7].

`CNC(=C[N+](=O)[O-])NCCSCc1csc(CN(C)C)n1` [NIZATIDINE]: the AC50 was more than 10 µM in test [2]; more than 10 µM in test [9]; more than 30 µM in [3]; more than 10 µM in test [4]; more than 30 µM in test [5]; more than 300 µM in test [6]. Moreover, the AC50 in test [7] and in [8] was more than 10 µM each time.

Regarding `CC[C@@H](CO)NC(=O)[C@@H]1C=C2c3cccc4c3c(cn4C)C[C@H]2N(C)C1` [METHYSERGIDE], the half-maximal activity concentration (AC50) in test [1] was more than 10 µM; in [2], more than 30 µM; in test [3], more than 30 µM; in test [4], more than 10 µM; in [5], more than 30 µM; in [6], 180 µM. The concentration at half-maximal activity (AC50) in test [7] is 0.2 µM; in [8], more than 30 µM.

Consider `CC(C)(O/N=C(\C(=O)N[C@@H]1C(=O)N2C(C(=O)[O-])=C(C[n+]3ccccc3)CS[C@H]12)c1csc(N)n1)C(=O)O` [CEFTAZIDIME], for which the concentration at half-maximal activity (AC50) in test [1] was more than 300 µM; in test [2] it was more than 30 µM; in test [3], more than 300 µM; in [4], more than 30 µM; in [5], more than 300 µM; in test [6] it was more than 300 µM. The AC50 in test [7] and in [8] was more than 300 µM in each case.

For `CCC(=O)O[C@]1(C(=O)CCl)[C@@H](C)C[C@H]2[C@@H]3CCC4=CC(=O)C=C[C@]4(C)[C@@]3(F)[C@@H](O)C[C@@]21C` [CLOBETASOL PROPIONATE], the AC50 was more than 30 µM in test [1]; more than 10 µM in [2]; more than 30 µM in test [3]; more than 30 µM in test [4]; more than 30 µM in test [5]; 23 µM in [6]. Further, the AC50 in test [7] and in test [8] was more than 30 µM throughout.

As to `C[N+](C)(C)CCOP(=O)(O)OP(=O)([O-])OC[C@H]1O[C@@H](n2ccc(N)nc2=O)[C@H](O)[C@@H]1O` [CITICOLINE], the concentration at half-maximal activity (AC50) in test [10], in test [11], in test [3], in test [4], in test [5] and in test [7] was more than 30 µM each time.

For `CCOc1cc([C@@H](CS(C)(=O)=O)N2C(=O)c3cccc(NC(C)=O)c3C2=O)ccc1OC`, the AC50 in test [1] was more than 30 µM; in test [9], more than 30 µM; in [3], more than 30 µM; in [5], more than 30 µM; in test [6] it was 139 µM; in test [7] it was more than 30 µM. The compound also had a concentration at half-maximal activity (AC50) in test [8] of more than 30 µM.

On to `CC[C@H]1OC(=O)[C@H](C)[C@@H](O[C@H]2C[C@@](C)(OC)[C@@H](O)[C@H](C)O2)[C@H](C)[C@@H](O[C@@H]2O[C@H](C)C[C@H](N(C)C)[C@H]2O)[C@](C)(O)C[C@@H](C)[C@@H]2N[C@@H](COCCOC)O[C@H]([C@H]2C)[C@]1(C)O` [DIRITHROMYCIN], for which the AC50 in test [10] and in [11] was more than 30 µM throughout.

As to `Nc1cccc2c1C(=O)N(C1CCC(=O)NC1=O)C2=O` (stereo unspecified) [POMALIDOMIDE], the AC50 in test [10] and in [11] was more than 30 µM each time.
